Source: patent EP0869969B1, “PEPTIDE CONJUGATES, USE THEREOF AS A DRUG, AND COMPOSITIONS CONTAINING them” (INSTITUT EUROPEEN DE BIOLOGIE CELLULAIRE, priority 1995, dated 2003)
Several values for one entry are separate records, joined by “and”; a condition that tells them apart may be missing. Equal values may be shown once. Starred links: 1 amine or outer side, 2 acyl side, 3 side chain; linkers in the order of their positions; H or OH if unused. Residues, ends and D or L forms follow the SMILES beside them. Adipoyl = O=C(CCCCC(=O)[*:2])[*:1]

Key:
[1] = system: MRC5, fibroblastes de poumon embryonnaire humain; assay: Type I collagen synthesis by cultured MRC5 fibroblasts, secondary immunofluorescence; type: cell-based; conditions: MRC5, results not shown
From the text: (§1) La mise en évidence de l'influence du conjugué n' 7 sur la synthèse de collagène de type I par des cellules en culture a été réalisée sur deux types cellulaires : • des fibroblastes humains de plastie mammaire au 3ème passage, obtenus dans notre laboratoire de culture cellulaire à l'IEB, • des MRC5, fibroblastes de poumon embryonnaire humain non transformés au passage p38, obtenus à p 25-30 chez ICN FLOW.
(§2) Les cellules sont stimulées ou non avec le conjugué n° 7, puis elles sont observées au microscope pholoniquc à fluorescence après révélation du collagène de type I par une réaction d'immuno-fluorescence secondaire.
(§3) Les cellules sont ensemencées à raison de 70 000 cellules par ml pour les fibroblastes de primoculture et 20 000 pour les MRC5.
(§4) La culture est réalisée en DMEM 10% SVF dans les tubes de Leigton contenant une lamelle dans le fond du tube, volume final : 1,6 ml.
8 tubes sont prévus par type cellulaire : 3 témoins et 5 concentrations. […]
(§5) Les observations microscopiques sont réalisées sur un microscope droit à fluorescence Zeiss (Axioplan), surmonté d'une caméra 3 CCD Sony (MC-3215 P/M) reliée à un moniteur vidéo Trinitron avec écran couleur Sony. […]
(§6) Les cellules sont d'abord observées en contraste interférentiel et/ou de phase. Quand un champ est sélectionné, l'image est enregistrée, puis sans bouger d'endroit l'observation est réalisée en fluorescence et enregistrée. […]

rat-OFA = assay: Wound-healing power in the rat: sutured flank incision, topical application, scar resistance to stretching by dynamometer; type: in vivo; conditions: for augmentation de la cicatrisation des plaies par rapport aux témoins: 5 jours; for Résistance des cicatrices à l'étirement, Moyenne: mean of treated group (control 24,5 +/- 1,5)
Experimental: Déterminer le pouvoir cicatrisant du peptide n° 7 administré chez le rat-OFA par applications topiques aux doses de 0,75 µg, 7,5 µg et 75 µg par animal pendant cinq jours.
I - Animaux : rats de souche OFA, OF1, IFFA-CREDO, pesant de 250 à 300 g.
Conjugué peptidique n° 7, correspondant la formule : Adipoyl-Lys-Lys-Gly-His-Lys-NH2.
Mis en solution dans le propylène glycol aux doses de 1,5 µg/ml, 15 µg/ml, 150 µg/ml.
Après anesthésie générale à l'éther, une incision de 5 cm de long a été pratiquée sur la flanc droit des animaux.
Une suture en fil trinyl 2/0 a été effectuée à raison d'un point tous les 0,5 cm.
Les animaux traités comme les témoins ont subi la même intervention dans les mêmes conditions.
Le traitement a débuté le lendemain de l'intervention sur les lots d'animaux traités aux doses de 0,5 ml de solution peptidique sur chaque incision.
Soit 0,75 µg, 7,5 µg et 75 µg de peptide par animal et par application pendant la durée du traitement, soit 5 jours.
Les animaux ont été mis en observation pendant 9 jours, ils ont ensuite été sacrifiés par une dose létale de penthiobarbital.
Les zones de peau en cours de cicatrisation ont été prélevées et soumises aux "tests" d'étirement au dynamomètre, pour mesurer la résistance de la cicatrice à l'étirement.
Une analyse statistique a été effectuée sur les valeurs de résistance obtenue au dynamomètre. Une analyse de variance et un test de "T" student a été pratiqué sur les valeurs individuelles, afin de définir le seuil de signification des résultats.

[2] = system: fibroblastes humains de plastie mammaire; assay: Type I collagen synthesis by cultured primary fibroblasts, secondary immunofluorescence (rhodamine/TRITC); type: cell-based, humain
From the text: as §1, §2, §3, §4
8 tubes sont prévus par type cellulaire : 3 témoins et 5 concentrations.
Ces différentes solutions mères seront ajoutées au milieu de culture au moment du contact produit.
Les dilutions sont réalisées dans du PBS (Eurobio) - BSA 0,1% (Flucka) puis filtrées sur filtres 0,22 µm (Sartorius).
A J0, le milieu est éliminé et remplacé par du milieu frais auquel est ajouté le conjugué n° 7 aux différentes concentrations selon le tableau suivant :
Les témoins TO et T ne reçoivent que du milieu.
Le milieu est élimine; les tubes sont rincés 3 fois avec du DMEM sans sérum à 37° C. Les cellules sont fixées 20 mn à 4°C en présence de PFA 2,5% (Prolabo) dans du Hanks (Eurobio).
3 rinçages en DMEM sans sérum sont effectués suivis de 2 lavages 10 mn en PBS sans calcium ni magnésium (Eurobio). […]
as §5, §6

NCCCC[C@H](NC(=O)[C@H](Cc1c[nH]cn1)NC(=O)CNC(=O)[C@H](CCCCN)NC(=O)[C@H](CCCCN)NC(=O)CCCCC(=O)O)C(N)=O [conjugué 7, Adipoyl-Lys-Lys-Gly-His-Lys-NH2] (Adipoyl-KKGHK-NH2)
synthèse de collagène de type I [1]: mêmes tendances | augmentation de la cicatrisation des plaies par rapport aux témoins (rat-OFA; topical, 0,75 µg par jour): 14,5% | Résistance des cicatrices à l'étirement "dynamométrie" (rat-OFA; topical, 0,75 µg/jour/5 jours, individual treated animals, sacrifice after 9 days): 28,5 Dynes and 26,1 Dynes and 29,3 Dynes and 27,7 Dynes and 28,6 Dynes | Résistance des cicatrices à l'étirement "dynamométrie", Moyenne (rat-OFA; topical, 0,75 µg/jour/5 jours, mean of treated group (control 24,5+/-1,5)): 28,0+/-1,2 Dynes | augmentation de la cicatrisation des plaies par rapport aux témoins (rat-OFA; topical, 75 µg par jour): 59,6% | augmentation de la cicatrisation des plaies par rapport aux témoins (rat-OFA; topical, 7,5 µg par jour): 30,9% | Résistance des cicatrices à l'étirement, Dynes (rat-OFA; topical, 7,5 µg/jour/5 jours (Tableau n° 2), individual treated animals): 32,6 Dynes and 30,4 Dynes and 33,1 Dynes and 32,3 Dynes and 31,8 Dynes | Résistance des cicatrices à l'étirement, Moyenne (rat-OFA; topical, 7,5 µg/jour/5 jours (Tableau n° 2)): 32,0 +/- 1,0 Dynes | Résistance des cicatrices à l'étirement, Dynes (rat-OFA; topical, Tableau n° 3, 7,5 µg/jour/5 jours, individual treated animals): 39,8 Dynes and 41,3 Dynes and 37,5 Dynes and 36,2 Dynes and 40,7 Dynes | Résistance des cicatrices à l'étirement, Moyenne (rat-OFA; topical, Tableau n° 3, 7,5 µg/jour/5 jours): 39,1+/-2,2 Dynes | aspect des cicatrisations au 9ème jour (rat-OFA; topical, day 9): cicatrisation parfaitement plate, avec absence de bourrelets cicatriciels | action cicatrisante (rat-OFA; topical, overall conclusion): action cicatrisante hautement significative | synthèse de collagène de type I ([2]; 10-11 M, fibroblastes de primoculture): stimule très significativement | luminosité moyenne du rouge sur l'ensemble de l'image ([2]; 10-11 M, untreated cells 32,78): 54,8 | stimulation de la synthèse de collagène de type 1 ([2]; fibroblastes humains de primocultures, versus untreated cells): +67%
